Laboratory results from ChEMBL document CHEMBL4308864, “Targeting tyrosine kinase: Development of acridone - pyrrole - oxindole hybrids against human breast cancer” (2019).

How the values were obtained:
Type in all cases: functional
MDA-MB-231 = test: Growth inhibition of human MDA-MB-231 cells assessed as cell growth at 10^-5 M incubated for 48 hrs by sulforhodamine B assay relative to control; settings: MDA-MB-231, 48 h, read-out: Activity
SF-295 = test: Growth inhibition of human SF295 cells assessed as cell growth at 10^-5 M incubated for 48 hrs by sulforhodamine B assay relative to control; settings: SF-295, 48 h, read-out: Activity
HOP-92 = test: Growth inhibition of human HOP92 cells assessed as cell growth at 10^-5 M incubated for 48 hrs by sulforhodamine B assay relative to control; settings: HOP-92, 48 h, read-out: Activity
SK-MEL-28 = test: Growth inhibition of human SK-MEL-28 cells assessed as cell growth at 10^-5 M incubated for 48 hrs by sulforhodamine B assay relative to control; settings: SK-MEL-28, 48 h, read-out: Activity
HL-60(TB) = test: Growth inhibition of human HL-60(TB) cells assessed as cell growth at 10^-5 M incubated for 48 hrs by sulforhodamine B assay relative to control; settings: HL-60, 48 h, read-out: Activity
TK-10 = test: Growth inhibition of human TK10 cells assessed as cell growth at 10^-5 M incubated for 48 hrs by sulforhodamine B assay relative to control; settings: TK-10, 48 h, read-out: Activity
HCT-15 = test: Growth inhibition of human HCT15 cells assessed as cell growth at 10^-5 M incubated for 48 hrs by sulforhodamine B assay relative to control; settings: HCT-15, 48 h, read-out: Activity
HT-29 = test: Growth inhibition of human HT-29 cells assessed as cell growth at 10^-5 M incubated for 48 hrs by sulforhodamine B assay relative to control; settings: HT-29, 48 h, read-out: Activity
CAKI-1 = test: Growth inhibition of human Caki1 cells assessed as cell growth at 10^-5 M incubated for 48 hrs by sulforhodamine B assay relative to control; settings: CAKI-1, 48 h, read-out: Activity
SK-OV-3 = test: Growth inhibition of human SKOV3 cells assessed as cell growth at 10^-5 M incubated for 48 hrs by sulforhodamine B assay relative to control; settings: SK-OV-3, 48 h, read-out: Activity
MCF7 = test: Growth inhibition of human MCF7 cells at 10^-5 M incubated for 48 hrs by sulforhodamine B assay relative to control; settings: MCF7, 48 h, read-out: GI
BT-549 = test: Growth inhibition of human BT549 cells assessed as cell growth at 10^-5 M incubated for 48 hrs by sulforhodamine B assay relative to control; settings: BT-549, 48 h, read-out: Activity
SNB-75 = test: Growth inhibition of human SNB75 cells assessed as cell growth at 10^-5 M incubated for 48 hrs by sulforhodamine B assay relative to control; settings: SNB-75, 48 h, read-out: Activity
A498 = test: Growth inhibition of human A498 cells assessed as cell growth at 10^-5 M incubated for 48 hrs by sulforhodamine B assay relative to control; settings: A498, 48 h, read-out: Activity
M14 = test: Growth inhibition of human M14 cells assessed as cell growth at 10^-5 M incubated for 48 hrs by sulforhodamine B assay relative to control; settings: M14, 48 h, read-out: Activity
SF-539 = test: Growth inhibition of human SF539 cells assessed as cell growth at 10^-5 M incubated for 48 hrs by sulforhodamine B assay relative to control; settings: SF-539, 48 h, read-out: Activity
LOX IMVI = test: Growth inhibition of human LOXIMVI cells assessed as cell growth at 10^-5 M incubated for 48 hrs by sulforhodamine B assay relative to control; settings: read-out: Activity
T47D = test: Growth inhibition of human T47D cells at 10^-5 M incubated for 48 hrs by sulforhodamine B assay relative to control; settings: read-out: GI
Hs-578T = test: Growth inhibition of human Hs578T cells assessed as cell growth at 10^-5 M incubated for 48 hrs by sulforhodamine B assay relative to control; settings: read-out: Activity
EKVX = test: Growth inhibition of human EKVX cells assessed as cell growth at 10^-5 M incubated for 48 hrs by sulforhodamine B assay relative to control; settings: read-out: Activity
KM12 = test: Growth inhibition of human KM12 cells assessed as cell growth at 10^-5 M incubated for 48 hrs by sulforhodamine B assay relative to control; settings: KM12, 48 h, read-out: Activity
CCRF-CEM = test: Growth inhibition of human CCRF-CEM cells assessed as cell growth at 10^-5 M incubated for 48 hrs by sulforhodamine B assay relative to control; settings: read-out: Activity
DU-145 = test: Growth inhibition of human DU145 cells assessed as cell growth at 10^-5 M incubated for 48 hrs by sulforhodamine B assay relative to control; settings: DU-145, 48 h, read-out: Activity
NCI-H226 = test: Growth inhibition of human NCI-H226 cells assessed as cell growth at 10^-5 M incubated for 48 hrs by sulforhodamine B assay relative to control; settings: NCI-H226, 48 h, read-out: Activity
UO-31 = test: Growth inhibition of human UO31 cells assessed as cell growth at 10^-5 M incubated for 48 hrs by sulforhodamine B assay relative to control; settings: UO-31, 48 h, read-out: Activity
MDA-MB-468 = test: Growth inhibition of human MDA-MB-468 cells at 10^-5 M incubated for 48 hrs by sulforhodamine B assay relative to control; settings: MDA-MB-468, 48 h, read-out: GI
786-0 = test: Growth inhibition of human 786-0 cells assessed as cell growth at 10^-5 M incubated for 48 hrs by sulforhodamine B assay relative to control; settings: 786-0, 48 h, read-out: Activity
COLO 205 = test: Growth inhibition of human COLO205 cells assessed as cell growth at 10^-5 M incubated for 48 hrs by sulforhodamine B assay relative to control; settings: COLO 205, 48 h, read-out: Activity
UACC-62 = test: Growth inhibition of human UACC62 cells assessed as cell growth at 10^-5 M incubated for 48 hrs by sulforhodamine B assay relative to control; settings: UACC-62, 48 h, read-out: Activity
NCI-H322M = test: Growth inhibition of human NCI-H322M cells assessed as cell growth at 10^-5 M incubated for 48 hrs by sulforhodamine B assay relative to control; settings: read-out: Activity
OVCAR-8 = test: Growth inhibition of human OVCAR8 cells assessed as cell growth at 10^-5 M incubated for 48 hrs by sulforhodamine B assay relative to control; settings: OVCAR-8, 48 h, read-out: Activity
NCI/ADR-RES = test: Growth inhibition of human NCI/ADR-RES cells assessed as cell growth at 10^-5 M incubated for 48 hrs by sulforhodamine B assay relative to control; settings: read-out: Activity
MDA-MB-435 = test: Growth inhibition of human MDA-MB-435 cells assessed as cell growth at 10^-5 M incubated for 48 hrs by sulforhodamine B assay relative to control; settings: MDA-MB-435, 48 h, read-out: Activity

## O=C1NC(=O)C(=Cc2cccn2CCCn2c3ccccc3c(=O)c3ccccc32)C(=O)N1
MDA-MB-231
  growth at 10 µM: 99.4%
SF-295
  growth at 10 µM: 98.7%
HOP-92
  growth at 10 µM: 87.8%
SK-MEL-28
  growth at 10 µM: 110%
HL-60(TB)
  growth at 10 µM: 94%
TK-10
  growth at 10 µM: 96.6%
HCT-15
  growth at 10 µM: 96.5%
HT-29
  growth at 10 µM: 99.7%
CAKI-1
  growth at 10 µM: 96.7%
SK-OV-3
  growth at 10 µM: 98.7%
MCF7
  inhibition of growth at 10 µM: 12%
BT-549
  growth at 10 µM: 98.9%
SNB-75
  growth at 10 µM: 95.7%
A498
  growth at 10 µM: 98.5%
M14
  growth at 10 µM: 102%
SF-539
  growth at 10 µM: 102%
LOX IMVI
  growth at 10 µM: 96.9%
T47D
  inhibition of growth at 10 µM: 15%
Hs-578T
  growth at 10 µM: 115%
EKVX
  growth at 10 µM: 98%
KM12
  growth at 10 µM: 99.6%
CCRF-CEM
  growth at 10 µM: 92.7%
DU-145
  growth at 10 µM: 108%
NCI-H226
  growth at 10 µM: 96.3%
UO-31
  growth at 10 µM: 75.9%
MDA-MB-468
  inhibition of growth at 10 µM: 7%
786-0
  growth at 10 µM: 96.3%
COLO 205
  growth at 10 µM: 108%
UACC-62
  growth at 10 µM: 87.1%
NCI-H322M
  growth at 10 µM: 98.5%
OVCAR-8
  growth at 10 µM: 101%
NCI/ADR-RES
  growth at 10 µM: 101%
MDA-MB-435
  growth at 10 µM: 104%

## O=C1NC(=O)C(=Cc2cccn2CCCCCn2c3ccccc3c(=O)c3ccccc32)C(=O)N1
MDA-MB-231
  growth at 10 µM: 116%
SF-295
  growth at 10 µM: 99.4%
HOP-92
  growth at 10 µM: 90.4%
SK-MEL-28
  growth at 10 µM: 111%
HL-60(TB)
  growth at 10 µM: 92.2%
TK-10
  growth at 10 µM: 101%
HCT-15
  growth at 10 µM: 92.8%
HT-29
  growth at 10 µM: 103%
CAKI-1
  growth at 10 µM: 103%
SK-OV-3
  growth at 10 µM: 108%
MCF7
  inhibition of growth at 10 µM: 15%
BT-549
  growth at 10 µM: 104%
SNB-75
  growth at 10 µM: 101%
A498
  growth at 10 µM: 104%
M14
  growth at 10 µM: 102%
SF-539
  growth at 10 µM: 102%
LOX IMVI
  growth at 10 µM: 95.3%
T47D
  inhibition of growth at 10 µM: 13%
Hs-578T
  growth at 10 µM: 106%
EKVX
  growth at 10 µM: 105%
KM12
  growth at 10 µM: 103%
CCRF-CEM
  growth at 10 µM: 100%
DU-145
  growth at 10 µM: 113%
NCI-H226
  growth at 10 µM: 99.2%
UO-31
  growth at 10 µM: 79.4%
MDA-MB-468
  inhibition of growth at 10 µM: 0%
786-0
  growth at 10 µM: 99%
COLO 205
  growth at 10 µM: 114%
UACC-62
  growth at 10 µM: 90.8%
NCI-H322M
  growth at 10 µM: 98.3%
OVCAR-8
  growth at 10 µM: 102%
NCI/ADR-RES
  growth at 10 µM: 99.5%
MDA-MB-435
  growth at 10 µM: 97.7%
